# Columns and labels:
# [1] = system: goosegrass; assay: Test C pre-/postemergence herbicide test; format: in vivo, Eleusine indica
# Procedure, shortened: (§1)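 Preemergence: seeds planted and treated with compound in non-phytotoxic solvent with surfactant; postemergence: plants at 2 to 18 cm (1- to 4-leaf stage) sprayed likewise. Kept in greenhouse 12 to 14 days, then visually rated against controls, 0 (no effect) to 100 (complete control).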
# [2] = system: ducksalad; assay: Test C flooded paddy test; format: in vivo, Heteranthera limosa; details: for Plant response rating, Ducksalad: 500 g ai/ha, visual rating after 12 to 14 days
# [3] = system: cocklebur; assay: Test C pre-/postemergence herbicide test; format: in vivo, Xanthium strumarium
# Procedure, shortened: as §1
# [4] = system: bermudagrass; assay: Test C pre-/postemergence herbicide test; format: in vivo, Cynodon dactylon
# Procedure, shortened: as §1
# [5] = system: woolly cupgrass; assay: Test C pre-/postemergence herbicide test; format: in vivo, Eriochloa villosa
# Procedure, shortened: as §1
# [6] = system: morningglory; assay: Test C pre-/postemergence herbicide test; format: in vivo, Ipomoea coccinea; parameters: key to Plant response rating, Morningglory: 0 = no effect, 100 = complete control
# Procedure, shortened: as §1
# [7] = system: kochia; assay: Test C pre-/postemergence herbicide test; format: in vivo, Kochia scoparia
# Procedure, shortened: as §1
# [8] = system: lambsquarters; assay: Test C pre-/postemergence herbicide test; format: in vivo, Chenopodium album
# Procedure, shortened: as §1
# [9] = system: smallflower umbrella sedge; assay: Test C flooded paddy test; format: in vivo, Cyperus difformis; details: for Plant response rating, Sedge, Umbrella: 500 g ai/ha, visual rating after 12 to 14 days
# [10] = 62 g ai/ha, preemergence, scale 0 to 100
# [11] = 250 g ai/ha, scale 0-100, preemergence
# [12] = 500 g ai/ha, scale 0 to 100 (0 no effect, 100 complete control), visual, 12 to 14 days, preemergence
# [13] = 125 g ai/ha, scale 0 to 100 (0 no effect, 100 complete control)
# [14] = 250 g ai/ha, scale of 0 to 100, 0 is no effect, 100 is complete control
# [15] = scale 0 to 100 (0 no effect, 100 complete control)
# [16] = 62 g ai/ha, preemergence, scale 0 to 100, 0 no effect, 100 complete control
# [17] = Postemergence, 250 g ai/ha, scale 0 to 100, 0 no effect, 100 complete control
# [18] = postemergence, 125 g ai/ha, scale 0 to 100
# [19] = postemergence, 62 g ai/ha, scale 0 to 100
# [20] = 62 g ai/ha, scale 0 to 100 (0 no effect, 100 complete control)
# [21] = 125 g ai/ha, scale of 0 to 100, 0 is no effect, 100 is complete control
# [22] = postemergence, 31 g ai/ha, scale 0 to 100
compound,measurement,setting,value
CCC1=NN(C(C)(C)C)CC1C(=O)Nc1cc(C(=O)N2CCCC2)ccc1F (racemic) [Compound 341],"Plant response rating, Goosegrass",[1]; [10],70
same,"Plant response rating (0 = no effect, 100 = complete control), Goosegrass","[1]; 125 g ai/ha, preemergence",85
same,"Plant response rating, Goosegrass",[1]; [11],85
same,"Plant response rating, Goosegrass",[1]; [12],90
same,Ducksalad plant response rating,"[2]; 62 g ai/ha, scale 0 to 100",20
same,Ducksalad plant response rating,[2]; [13],50
same,Ducksalad plant response rating,[2]; [14],60
same,"Plant response rating, Ducksalad",[2]; [15],60
same,"Plant response rating, Cocklebur",[3]; [10],0
same,"Plant response rating (0 = no effect, 100 = complete control), Cocklebur","[3]; 125 g ai/ha, preemergence",10
same,"Plant response rating, Cocklebur",[3]; [11],50
same,"Plant response rating, Cocklebur",[3]; [12],100
same,"Plant response rating, Bermudagrass",[4]; [16],80
same,"Plant response rating (0 = no effect, 100 = complete control), Bermudagrass","[4]; 125 g ai/ha, preemergence",80
same,"Plant response rating, Bermudagrass",[4]; [11],100
same,"Plant response rating, Bermudagrass",[4]; [12],100
same,"Plant response rating, Cupgrass, Woolly",[5]; [10],80
same,"Plant response rating (0 = no effect, 100 = complete control), Cupgrass, Woolly","[5]; 125 g ai/ha, preemergence",80
same,"Plant response rating, Cupgrass, Woolly",[5]; [11],100
same,"Plant response rating, Cupgrass, Woolly",[5]; [12],100
same,"Plant response rating, Morningglory",[6]; [10],0
same,"Plant response rating (0 = no effect, 100 = complete control), Morningglory","[6]; 125 g ai/ha, preemergence",5
same,"Plant response rating, Morningglory",[6]; [11],5
same,"Plant response rating, Morningglory",[6]; [12],50
same,"Plant response rating, Kochia",[7]; [10],80
same,"Plant response rating (0 = no effect, 100 = complete control), Kochia","[7]; 125 g ai/ha, preemergence",100
same,"Plant response rating, Kochia",[7]; [11],100
same,"Plant response rating, Kochia",[7]; [12],100
same,"Plant response rating, Lambsquarters",[8]; [10],100
same,"Plant response rating (0 = no effect, 100 = complete control), Lambsquarters","[8]; 125 g ai/ha, preemergence",100
same,"Plant response rating, Lambsquarters",[8]; [11],100
same,"Plant response rating, Lambsquarters",[8]; [12],100
same,"Sedge, Umbrella plant response rating","[9]; 62 g ai/ha, scale 0 to 100",20
same,"Sedge, Umbrella plant response rating",[9]; [13],50
same,"Sedge, Umbrella plant response rating",[9]; [14],60
same,"Plant response rating, Sedge, Umbrella",[9]; [15],60
CCC1=NN(C(C)(C)C)CC1C(=O)Nc1cc(C(=O)N(C)CC)ccc1F (racemic) [Compound 342],"Plant response rating, Goosegrass",[1]; [10],60
same,"Plant response rating (0 = no effect, 100 = complete control), Goosegrass","[1]; 125 g ai/ha, preemergence",65
same,"Plant response rating, Goosegrass",[1]; [11],65
same,"Plant response rating, Goosegrass",[1]; [12],90
same,Ducksalad plant response rating,"[2]; 62 g ai/ha, scale 0 to 100",50
same,Ducksalad plant response rating,[2]; [13],50
same,Ducksalad plant response rating,[2]; [14],80
same,"Plant response rating, Ducksalad",[2]; [15],80
same,"Plant response rating, Cocklebur",[3]; [10],10
same,"Plant response rating (0 = no effect, 100 = complete control), Cocklebur","[3]; 125 g ai/ha, preemergence",30
same,"Plant response rating, Cocklebur",[3]; [11],60
same,"Plant response rating, Cocklebur",[3]; [12],100
same,"Plant response rating, Bermudagrass",[4]; [16],45
same,"Plant response rating (0 = no effect, 100 = complete control), Bermudagrass","[4]; 125 g ai/ha, preemergence",60
same,"Plant response rating, Bermudagrass",[4]; [11],90
same,"Plant response rating, Bermudagrass",[4]; [12],90
same,"Plant response rating, Cupgrass, Woolly",[5]; [10],10
same,"Plant response rating (0 = no effect, 100 = complete control), Cupgrass, Woolly","[5]; 125 g ai/ha, preemergence",40
same,"Plant response rating, Cupgrass, Woolly",[5]; [11],50
same,"Plant response rating, Cupgrass, Woolly",[5]; [12],70
same,"Plant response rating, Morningglory",[6]; [10],0
same,"Plant response rating (0 = no effect, 100 = complete control), Morningglory","[6]; 125 g ai/ha, preemergence",5
same,"Plant response rating, Morningglory",[6]; [11],70
same,"Plant response rating, Morningglory",[6]; [12],100
same,"Plant response rating, Kochia",[7]; [10],50
same,"Plant response rating (0 = no effect, 100 = complete control), Kochia","[7]; 125 g ai/ha, preemergence",100
same,"Plant response rating, Kochia",[7]; [11],100
same,"Plant response rating, Kochia",[7]; [12],100
same,"Plant response rating, Lambsquarters",[8]; [10],70
same,"Plant response rating (0 = no effect, 100 = complete control), Lambsquarters","[8]; 125 g ai/ha, preemergence",90
same,"Plant response rating, Lambsquarters",[8]; [11],100
same,"Plant response rating, Lambsquarters",[8]; [12],100
same,"Sedge, Umbrella plant response rating","[9]; 62 g ai/ha, scale 0 to 100",40
same,"Sedge, Umbrella plant response rating",[9]; [13],50
same,"Sedge, Umbrella plant response rating",[9]; [14],70
same,"Plant response rating, Sedge, Umbrella",[9]; [15],80
CCn1nc(C(C)(C)C)cc1C(=O)Nc1cccc(C(=O)OC)c1 [Compound 81],"Plant response rating, Goosegrass",[1]; [17],10
same,"Plant response rating, Goosegrass",[1]; [18],5
same,"Plant response rating, Goosegrass",[1]; [19],0
same,Ducksalad plant response rating,[2]; [20],0
same,Ducksalad plant response rating,[2]; [21],0
same,Ducksalad plant response rating,[2]; [14],20
same,"Plant response rating, Ducksalad",[2]; [15],20
same,"Plant response rating, Cocklebur",[3]; [17],60
same,"Plant response rating, Cocklebur",[3]; [18],55
same,"Plant response rating, Cocklebur",[3]; [22],50
same,"Plant response rating, Cocklebur",[3]; [19],55
same,Bermudagrass plant response rating,"[4]; Postemergence, 250 g ai/ha, scale 0 to 100",20
same,"Plant response rating, Bermudagrass",[4]; [18],0
same,"Plant response rating, Bermudagrass",[4]; [22],0
same,"Plant response rating, Bermudagrass",[4]; [19],0
same,"Plant response rating, Cupgrass, Woolly",[5]; [17],5
same,"Plant response rating, Cupgrass, Woolly",[5]; [18],5
same,"Plant response rating, Cupgrass, Woolly",[5]; [19],5
same,"Plant response rating, Morningglory",[6]; [17],10
same,"Plant response rating, Morningglory",[6]; [18],10
same,"Plant response rating, Morningglory",[6]; [19],10
same,"Plant response rating, Kochia",[7]; [17],70
same,"Plant response rating, Kochia",[7]; [18],20
same,"Plant response rating, Kochia",[7]; [19],0
same,"Plant response rating, Lambsquarters",[8]; [17],5
same,"Plant response rating, Lambsquarters",[8]; [18],5
same,"Plant response rating, Lambsquarters",[8]; [19],5
same,"Sedge, Umbrella plant response rating",[9]; [20],70
same,"Sedge, Umbrella plant response rating",[9]; [21],70
same,"Sedge, Umbrella plant response rating",[9]; [14],80
same,"Plant response rating, Sedge, Umbrella",[9]; [15],80

# — patent US20060069132A1, “Azolecarboxamide herbicides” (priority 2004, published 2006)
